Where a name gives a salt, the structure may show the parent alone.
Legend:
HMESO mesothelioma cells = assay: Cell viability study (crystal violet) in HMESO mesothelioma cells; type: cell-based; conditions: Homo sapiens, 48 h incubation, read-out: IC50 (Concentration of drug required to kill 50% of cells)
Experimental: (§1) FIG. 1: Cell viability assay data in Malignant Mesothelioma (MM) cells (HMESO cell line) treated with compound (1)-HCl or (5)-HCl. N=2 technical and 2 biological replicates conducted by 2 different lab technicians. All compounds went into solution in 100% DMSO. (5)-HCl precipitated at concentrations of ˜20-80 μM when added to complete tissue culture media.
Cell Lines were plated in 96-well plates (Corning, Kennebunk, ME, USA) at a density of 2500 cells per well. The following day, cells were treated with test compounds diluted in complete media followed by incubation for 48 h. Post-incubation cells were washed with PBS (Corning Cellgro, Manassas, VA, USA), fixed with 3.0% formaldehyde (Fisher BioReagents, Fair Lawn, NJ, USA) in PBS, and stained for 30 min with 0.1% crystal violet (Acros Organics, Fair Lawn, NJ, USA) in water. Crystal violet stain was removed, and plates were washed with H2O and allowed to dry. To quantify cell viability, plates were imaged using the Lionheart Plate reader (BioTek Instruments, Winooski, VT, USA) and/or analyzed by absorbance at 540 nm (crystal violet dye dissolved in 100% methanol) using the Synergy HTX plate reader (BioTek Instruments, Winooski, VT, USA). […]

PRX3 = target: T1, PRX3 (Homo sapiens, UniProt P30048); assay: PRX3 crosslinking study (western blot) in Malignant Mesothelioma cells; type: cell-based; conditions: H-MESO cells treated 24 hours, reducing SDS-PAGE, anti-PRX3 western blot; TS at 2.5 or 5 μM
T1 construct: endogenous in cells; host or cells: H-MESO (HMESO) malignant mesothelioma cell line
T1 sequence (P30048 62-256): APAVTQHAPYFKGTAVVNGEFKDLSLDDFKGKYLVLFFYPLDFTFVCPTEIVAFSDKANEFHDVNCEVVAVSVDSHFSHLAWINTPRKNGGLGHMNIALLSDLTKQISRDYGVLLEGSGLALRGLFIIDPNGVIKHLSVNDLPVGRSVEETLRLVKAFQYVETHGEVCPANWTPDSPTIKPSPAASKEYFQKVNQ
Experimental: Malignant Mesothelioma (MM) cells (H-MESO cell line) were plated into 6-well plates in complete tissue culture media. Cells were allowed to adhere for 24 hours before being treated with indicated concentrations of thiostrepton (TS), (1) or (5) (DMSO Stocks) for 24 hours. Cell lysates were generated using standard RIPA buffer, protein concentrations were determined using a Bradford Assay and 20 μg of total protein per sample were separated by reducing SDS-Polyacrylamide Gel Electrophoresis. Proteins were transferred to a PVDF membrane, blocked with 5% Bovine Serum Albumin (BSA) for 1 hour and incubated with PRX3 primary antibody overnight at 4° C. in 1× Tris Buffered Saline with Tween (TBST). Membranes were washed 3× with 1×TBST and incubated with horseradish peroxidase conjugated (HRP) secondary antibody for 1 hour at room temperature. Membranes were washed 3× in 1×TBST and HRP signal was developed using Enhanced Chemiluminescence and visualized on a GE digital imager.

[1] = Behaviour of compounds in DMSO and in complete tissue culture media; type: physicochemical; conditions: from DMSO stock
Experimental: as §1

concentrations at which compound precipitated when added to complete tissue culture media [1]	Compound	IC50 (HMESO mesothelioma cells)	covalent PRX3 crosslinking (PRX3-X-PRX3) (PRX3)
–	C=C(NC(=O)C(=C)NC(=O)c1csc(-c2ccc(N)cc2)n1)C(N)=O [(1)-HCl, N-(3-((3-amino-3-oxoprop-1-en-2-yl)amino)-3-oxoprop-1-en-2-yl)-2-(4-aminophenyl)thiazole-4-carboxamide hydrochloride]	748 µM	No PRX3-X-PRX3 crosslinking was observed
20 to 80 µM	C=C(NC(=O)c1csc(-c2ccc(N)cc2)n1)C(=O)NC(=C)C(=O)OC [(5)-HCl, Methyl 2-(2-(2-(4-aminophenyl)thiazole-4-carboxamido)acrylamido)acrylate hydrochloride]	–	Similar, yet less robust, results
–	C=C(NC(=O)C(=C)NC(=O)c1csc(C2=N[C@@H]3c4csc(n4)[C@H]4NC(=O)c5csc(n5)[C@H]([C@](C)(O)[C@@H](C)O)NC(=O)[C@H]5CSC(=N5)/C(=C/C)NC(=O)[C@H]([C@@H](C)O)NC(=O)c5csc(n5)[C@]3(CC2)NC(=O)[C@H](C)NC(=O)C(=C)NC(=O)[C@H](C)NC(=O)[C@H]([C@@H](C)CC)N[C@@H]2C=Cc3c([C@H](C)O)cc(nc3[C@H]2O)C(=O)O[C@@H]4C)n1)C(N)=O [TS, thiostrepton]	1.01 µM	resulted in covalent PRX3 crosslinking
